# Measurements reported in patent publication US10251395B2, “Substituted furano-/thienocycloalkylamino-2-pyrimidine derivatives and use thereof for controlling undesired plant growth” (Bayer CropScience Aktiengesellschaft, priority 2015, dated 2019).
# Assays:
# Abutilon theophrasti [1] = experiment: Pre-emergence herbicidal effect; format: in vivo; details: Dosage 320 g/ha, scored visually after 3 weeks
# Procedure, shortened: (§1)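 Visual damage score in % after 3 weeks in the greenhouse, relative to untreated controls (0% like control, 100% plants dead). Compounds were sprayed pre-emergence onto covering soil over seeds sown in sandy loam, as WP or EC in water at 600 to 800 L/ha plus 0.2% wetting agent.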
# Alopecurus myosuroides [2] = experiment: Pre-emergence herbicidal effect; format: in vivo; details: scored visually after 3 weeks
# Procedure, shortened: as §1
# Amaranthus retroflexus [3] = experiment: Pre-emergence herbicidal effect; format: in vivo; details: scored visually after 3 weeks
# Procedure, shortened: as §1
# Lolium multiflorum = experiment: Pre-emergence herbicidal effect; format: in vivo; details: Dosage 320 g/ha, scored visually after 3 weeks
# Procedure, shortened: as §1
# Matricaria inodora = experiment: Pre-emergence herbicidal effect; format: in vivo; details: scored visually after 3 weeks
# Procedure, shortened: as §1
# Polygonum convolvulus [4] = experiment: Pre-emergence herbicidal effect; format: in vivo; details: scored visually after 3 weeks
# Procedure, shortened: as §1
# Setaria viridis [5] = experiment: Pre-emergence herbicidal effect; format: in vivo; details: scored visually after 3 weeks
# Procedure, shortened: as §1
# Stellaria media [6] = experiment: Pre-emergence herbicidal effect; format: in vivo; details: scored visually after 3 weeks
# Procedure, shortened: as §1
# Veronica persica [7] = experiment: Pre-emergence herbicidal effect; format: in vivo; details: scored visually after 3 weeks
# Procedure, shortened: as §1
# Viola tricolor [8] = experiment: Pre-emergence herbicidal effect; format: in vivo; details: scored visually after 3 weeks
# Procedure, shortened: as §1
# Alopecurus myosuroides [9] = experiment: Post-emergence herbicidal effect; format: in vivo; details: 320 g/ha, assessed visually after about 3 weeks vs untreated controls
# Procedure, shortened: (§2)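 Greenhouse weeds grown in sandy loam were sprayed at the one-leaf stage, 2–3 weeks after sowing, with WP or EC formulations in 600–800 L/ha water plus 0.2% wetting agent. Damage was scored visually after about 3 weeks as percent activity relative to untreated controls, where 100% means the plants died.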
# Viola tricolor [10] = experiment: Post-emergence herbicidal effect; format: in vivo; details: assessed visually after about 3 weeks vs untreated controls
# Procedure, shortened: as §2
# Echinochloa crus-galli [11] = experiment: Pre-emergence herbicidal effect; format: in vivo; details: scored visually after 3 weeks
# Procedure, shortened: as §1
# Abutilon theophrasti [12] = experiment: Post-emergence herbicidal effect; format: in vivo; details: 320 g/ha, assessed visually after about 3 weeks vs untreated controls
# Procedure, shortened: as §2
# Amaranthus retroflexus [13] = experiment: Post-emergence herbicidal effect; format: in vivo; details: assessed visually after about 3 weeks vs untreated controls
# Procedure, shortened: as §2
# Echinochloa crus-galli [14] = experiment: Post-emergence herbicidal effect; format: in vivo; details: 320 g/ha, assessed visually after about 3 weeks vs untreated controls
# Procedure, shortened: as §2
# Stellaria media [15] = experiment: Post-emergence herbicidal effect; format: in vivo; details: assessed visually after about 3 weeks vs untreated controls
# Procedure, shortened: as §2
# Veronica persica [16] = experiment: Post-emergence herbicidal effect; format: in vivo; details: 320 g/ha, assessed visually after about 3 weeks vs untreated controls
# Procedure, shortened: as §2
# logP (HCOOH) = format: physicochemical; details: HCOOH
# Source text: Table 2 (physicochemical characterization of selected synthesis examples)
# Ipomoea purpurea = experiment: Post-emergence herbicidal effect; format: in vivo; details: 320 g/ha, assessed visually after about 3 weeks vs untreated controls
# Procedure, shortened: as §2
# Setaria viridis [17] = experiment: Post-emergence herbicidal effect; format: in vivo; details: 320 g/ha, assessed visually after about 3 weeks vs untreated controls
# Procedure, shortened: as §2
# Polygonum convolvulus [18] = experiment: Post-emergence herbicidal effect; format: in vivo; details: 320 g/ha, assessed visually after about 3 weeks vs untreated controls
# Procedure, shortened: as §2
structure (smiles),measurement,setting,value
Cc1cc2c(o1)CCCC2Nc1ncc(C(F)(F)F)c(N)n1 (racemic) [compound 28],ABUTH pre-emergence efficacy (herbicidal activity),Abutilon theophrasti [1],80%
same,ALOMY pre-emergence efficacy (herbicidal activity),Alopecurus myosuroides [2]; Dosage 320 g/ha,90%
same,AMARE pre-emergence efficacy (herbicidal activity),Amaranthus retroflexus [3]; Dosage 80 g/ha,100%
same,AMARE pre-emergence efficacy (herbicidal activity),Amaranthus retroflexus [3]; Dosage 320 g/ha,100%
same,LOLMU pre-emergence efficacy (herbicidal activity),Lolium multiflorum,100%
same,MATIN pre-emergence efficacy (herbicidal activity),Matricaria inodora; Dosage 80 g/ha,90%
same,MATIN pre-emergence efficacy (herbicidal activity),Matricaria inodora; Dosage 320 g/ha,100%
same,POLCO pre-emergence efficacy (herbicidal activity),Polygonum convolvulus [4]; Dosage 320 g/ha,100%
same,SETVI pre-emergence efficacy (herbicidal activity),Setaria viridis [5]; Dosage 320 g/ha,100%
same,STEME pre-emergence efficacy (herbicidal activity),Stellaria media [6]; Dosage 80 g/ha,100%
same,STEME pre-emergence efficacy (herbicidal activity),Stellaria media [6]; Dosage 320 g/ha,100%
same,VERPE pre-emergence efficacy (herbicidal activity),Veronica persica [7]; Dosage 80 g/ha,100%
same,VERPE pre-emergence efficacy (herbicidal activity),Veronica persica [7]; Dosage 320 g/ha,100%
same,VIOTR pre-emergence efficacy (herbicidal activity),Viola tricolor [8]; Dosage 80 g/ha,90%
same,VIOTR pre-emergence efficacy (herbicidal activity),Viola tricolor [8]; Dosage 320 g/ha,100%
same,post-emergence efficacy ALOMY,Alopecurus myosuroides [9],100%
same,post-emergence efficacy VIOTR,Viola tricolor [10]; 320 g/ha,90%
CS(=O)(=O)c1cnc(NC2CCCc3ccsc32)nc1N (racemic) [compound 69],ABUTH pre-emergence efficacy (herbicidal activity),Abutilon theophrasti [1],100%
same,ALOMY pre-emergence efficacy (herbicidal activity),Alopecurus myosuroides [2]; Dosage 320 g/ha,80%
same,AMARE pre-emergence efficacy (herbicidal activity),Amaranthus retroflexus [3]; Dosage 80 g/ha,100%
same,AMARE pre-emergence efficacy (herbicidal activity),Amaranthus retroflexus [3]; Dosage 320 g/ha,100%
same,ECHCG pre-emergence efficacy (herbicidal activity),Echinochloa crus-galli [11]; Dosage 320 g/ha,100%
same,LOLMU pre-emergence efficacy (herbicidal activity),Lolium multiflorum,100%
same,MATIN pre-emergence efficacy (herbicidal activity),Matricaria inodora; Dosage 80 g/ha,100%
same,MATIN pre-emergence efficacy (herbicidal activity),Matricaria inodora; Dosage 320 g/ha,100%
same,POLCO pre-emergence efficacy (herbicidal activity),Polygonum convolvulus [4]; Dosage 320 g/ha,100%
same,SETVI pre-emergence efficacy (herbicidal activity),Setaria viridis [5]; Dosage 320 g/ha,100%
same,STEME pre-emergence efficacy (herbicidal activity),Stellaria media [6]; Dosage 80 g/ha,100%
same,STEME pre-emergence efficacy (herbicidal activity),Stellaria media [6]; Dosage 320 g/ha,100%
same,VERPE pre-emergence efficacy (herbicidal activity),Veronica persica [7]; Dosage 80 g/ha,100%
same,VERPE pre-emergence efficacy (herbicidal activity),Veronica persica [7]; Dosage 320 g/ha,100%
same,VIOTR pre-emergence efficacy (herbicidal activity),Viola tricolor [8]; Dosage 80 g/ha,100%
same,VIOTR pre-emergence efficacy (herbicidal activity),Viola tricolor [8]; Dosage 320 g/ha,100%
same,post-emergence efficacy ABUTH,Abutilon theophrasti [12],80%
same,post-emergence efficacy ALOMY,Alopecurus myosuroides [9],80%
same,post-emergence efficacy AMARE,Amaranthus retroflexus [13]; 80 g/ha,20%
same,post-emergence efficacy AMARE,Amaranthus retroflexus [13]; 320 g/ha,90%
same,post-emergence efficacy ECHCG,Echinochloa crus-galli [14],80%
same,post-emergence efficacy STEME,Stellaria media [15]; 320 g/ha,90%
same,post-emergence efficacy VERPE,Veronica persica [16],80%
same,post-emergence efficacy VIOTR,Viola tricolor [10]; 80 g/ha,80%
same,post-emergence efficacy VIOTR,Viola tricolor [10]; 320 g/ha,100%
same,logP (HCOOH),logP (HCOOH),"solid; m.p.: 129.9° C.; logP (HCOOH): 1.86; 1H NMR (CDCl3, 400 MHZ, δ in ppm): ):"
Cc1cc2c(s1)CCCC2Nc1nc(N)c(-c2cncc(Cl)c2)c(C(F)F)n1 (racemic) [compound 300],AMARE pre-emergence efficacy (herbicidal activity),Amaranthus retroflexus [3]; Dosage 320 g/ha,100%
same,MATIN pre-emergence efficacy (herbicidal activity),Matricaria inodora; Dosage 80 g/ha,80%
same,MATIN pre-emergence efficacy (herbicidal activity),Matricaria inodora; Dosage 320 g/ha,90%
same,SETVI pre-emergence efficacy (herbicidal activity),Setaria viridis [5]; Dosage 320 g/ha,70%
same,STEME pre-emergence efficacy (herbicidal activity),Stellaria media [6]; Dosage 80 g/ha,80%
same,STEME pre-emergence efficacy (herbicidal activity),Stellaria media [6]; Dosage 320 g/ha,100%
same,VIOTR pre-emergence efficacy (herbicidal activity),Viola tricolor [8]; Dosage 320 g/ha,100%
same,post-emergence efficacy ALOMY,Alopecurus myosuroides [9],70%
same,post-emergence efficacy AMARE,Amaranthus retroflexus [13]; 320 g/ha,90%
same,post-emergence efficacy PHBPU,Ipomoea purpurea,60%
same,post-emergence efficacy STEME,Stellaria media [15]; 80 g/ha,60%
same,post-emergence efficacy STEME,Stellaria media [15]; 320 g/ha,90%
Cc1cc2c(s1)CCCC2Nc1nc(N)c(C#N)c(C(C)F)n1 (racemic) [compound 320],AMARE pre-emergence efficacy (herbicidal activity),Amaranthus retroflexus [3]; Dosage 320 g/ha,100%
same,MATIN pre-emergence efficacy (herbicidal activity),Matricaria inodora; Dosage 320 g/ha,100%
same,POLCO pre-emergence efficacy (herbicidal activity),Polygonum convolvulus [4]; Dosage 320 g/ha,100%
same,SETVI pre-emergence efficacy (herbicidal activity),Setaria viridis [5]; Dosage 320 g/ha,100%
same,STEME pre-emergence efficacy (herbicidal activity),Stellaria media [6]; Dosage 320 g/ha,100%
same,VERPE pre-emergence efficacy (herbicidal activity),Veronica persica [7]; Dosage 320 g/ha,100%
same,VIOTR pre-emergence efficacy (herbicidal activity),Viola tricolor [8]; Dosage 320 g/ha,100%
same,post-emergence efficacy ABUTH,Abutilon theophrasti [12],80%
same,post-emergence efficacy ALOMY,Alopecurus myosuroides [9],80%
same,post-emergence efficacy AMARE,Amaranthus retroflexus [13]; 320 g/ha,60%
same,post-emergence efficacy SETVI,Setaria viridis [17],60%
same,post-emergence efficacy STEME,Stellaria media [15]; 320 g/ha,60%
same,post-emergence efficacy VERPE,Veronica persica [16],100%
same,post-emergence efficacy VIOTR,Viola tricolor [10]; 320 g/ha,100%
Cc1cc2c(s1)CCC[C@H]2Nc1ncc2c(n1)CCCS2(=O)=O [compound 44],ABUTH pre-emergence efficacy (herbicidal activity),Abutilon theophrasti [1],100%
same,ALOMY pre-emergence efficacy (herbicidal activity),Alopecurus myosuroides [2]; Dosage 80 g/ha,80%
same,ALOMY pre-emergence efficacy (herbicidal activity),Alopecurus myosuroides [2]; Dosage 320 g/ha,100%
same,AMARE pre-emergence efficacy (herbicidal activity),Amaranthus retroflexus [3]; Dosage 80 g/ha,100%
same,AMARE pre-emergence efficacy (herbicidal activity),Amaranthus retroflexus [3]; Dosage 320 g/ha,100%
same,ECHCG pre-emergence efficacy (herbicidal activity),Echinochloa crus-galli [11]; Dosage 80 g/ha,100%
same,ECHCG pre-emergence efficacy (herbicidal activity),Echinochloa crus-galli [11]; Dosage 320 g/ha,100%
same,LOLMU pre-emergence efficacy (herbicidal activity),Lolium multiflorum,100%
same,MATIN pre-emergence efficacy (herbicidal activity),Matricaria inodora; Dosage 80 g/ha,100%
same,MATIN pre-emergence efficacy (herbicidal activity),Matricaria inodora; Dosage 320 g/ha,100%
same,POLCO pre-emergence efficacy (herbicidal activity),Polygonum convolvulus [4]; Dosage 80 g/ha,100%
same,POLCO pre-emergence efficacy (herbicidal activity),Polygonum convolvulus [4]; Dosage 320 g/ha,100%
same,SETVI pre-emergence efficacy (herbicidal activity),Setaria viridis [5]; Dosage 80 g/ha,100%
same,SETVI pre-emergence efficacy (herbicidal activity),Setaria viridis [5]; Dosage 320 g/ha,100%
same,STEME pre-emergence efficacy (herbicidal activity),Stellaria media [6]; Dosage 80 g/ha,100%
same,STEME pre-emergence efficacy (herbicidal activity),Stellaria media [6]; Dosage 320 g/ha,100%
same,VERPE pre-emergence efficacy (herbicidal activity),Veronica persica [7]; Dosage 80 g/ha,100%
same,VERPE pre-emergence efficacy (herbicidal activity),Veronica persica [7]; Dosage 320 g/ha,100%
same,post-emergence efficacy ABUTH,Abutilon theophrasti [12],90%
same,post-emergence efficacy ALOMY,Alopecurus myosuroides [9],90%
same,post-emergence efficacy AMARE,Amaranthus retroflexus [13]; 320 g/ha,100%
same,post-emergence efficacy ECHCG,Echinochloa crus-galli [14],100%
same,post-emergence efficacy PHBPU,Ipomoea purpurea,100%
same,post-emergence efficacy POLCO,Polygonum convolvulus [18],80%
same,post-emergence efficacy SETVI,Setaria viridis [17],100%
same,post-emergence efficacy STEME,Stellaria media [15]; 320 g/ha,100%
same,post-emergence efficacy VERPE,Veronica persica [16],100%
same,post-emergence efficacy VIOTR,Viola tricolor [10]; 320 g/ha,80%
